Measurements taken from patent publication US9056886B2, “Guanosine-rich modified oligonucleotides and antiproliferative activity thereof” (APTABIO THERAPEUTICS INC., priority 2009, dated 2015).
[5FU] = 5-fluorouracil base (5-fluoro-2'-deoxyuridine unit); [GEM] = 2',2'-difluoro-2'-deoxycytidine (gemcitabine); [5FC] = 5-fluoro-2'-deoxycytidine; d = 2'-deoxy (DNA)

How the values were obtained:
[1] = system: PC-3 cell line (prostate cancer cell); experiment: Cell apoptosis (XTT method) in PC-3 cells; assay type: cell-based; details: PC3 (Prostate Cancer Cells), cultured six days, XTT
Procedure: (§1) Each oligonucleotide was diluted in 10 mM Tris-HCl (pH 7.4) to a final concentration of 100 μM. The diluted solution was placed at 94° C. for 5 minutes and then quickly placed them on ice and left therein for 5 minutes. The resultant was added with 2M KCl to a final concentration of 50 mM, left at 60° C. for 3 hours and then slowly cooled down to room temperature.
(§2) One day before the experiment, 190 μL of culture, wherein PC-3 cell line(prostate cancer cell) was suspended at a concentration of 10^3-10^4/mL, was inoculated respectively into each well of a 96 well plate. The next day, 10 μL of the oligonucleotide solution prepared in Example 1 was added and cultured for six days. Six days after the inoculation, cell apoptosis rate measured by means of XTT method [JBC 1999, 26369].

[2] = system: MCF7-DX (Breast Cancer Cells), a drug-resistance cell line; experiment: Cell apoptosis (XTT method) in MCF7-DX cells; assay type: cell-based
Procedure: [Worded in the source for another cell line; this cell line is reported under the same test.] as §1, §2
As a result, it was confirmed that the cell apoptosis rate of APT-2001, APT-2002 and APT-2003 (the novel modified oligonucleotides of the present invention), was 3-10 times higher than those of APT-4001 (positive control) and APT-4002 (negative control) as measured in terms of IC50 or IC90 (FIG. 2). […] In addition, the cell apoptotic activity of the oligonucleotides, prepared according to the present invention over the K562 CML (chronic myeloid leukemia), MV-4-11 AML (acute leukemia) cells, were also verified.

| Substance | IC50 [1] [nM] | IC50 [2] [nM] |
| --- | --- | --- |
| APT-2070: GGNGGTGGTGGTTGTGGTGGTGGTGG (SEQ. ID. NO. 45); N=2′,2′-difluoro deoxycytidine, G=2-deoxy-guanosine, H=thymidine (2',2'-difluoro deoxycytidine modified nucleosides, chemistry not fully specified) | 24 | 13 |
| APT-2020: GGTGGTGGNNNNGGTGGTGG (SEQ. ID. NO. 18); N=5-F-deoxyuridine, G=2-deoxy-guanosine, H=thymidine (DNA GGTGGTGGUUUUGGTGGTGG; DNA, [5FU] at 9, 10, 11, 12, backbone not given here) | 160 | 890 |
| APT-2035: GGTGGTGGTTNTGGTGGTGG (SEQ. ID. NO. 24); N=2′,2′-difluoro deoxycytidine, G=2-deoxy-guanosine, H=thymidine (2',2'-difluoro deoxycytidine modified nucleosides, chemistry not fully specified) | 35 | 7 |
| APT-2032: GGTGGTGGTTNTGGTGGTGG (SEQ. ID. NO. 24); N=5-F-deoxyuridine, G=2-deoxy-guanosine, H=thymidine (DNA GGTGGTGGTTUTGGTGGTGG; aptamer; DNA, [5FU] at 11, backbone not given here) | > 10000 | 3600 |
| APT-2061: GGTGGTGGTNGTGGTGGTGG (SEQ. ID. NO. 38); N=2′,2′-difluoro deoxycytidine, G=2-deoxy-guanosine, H=thymidine (DNA GGTGGTGGTCGTGGTGGTGG; aptamer; sugars from the 5' end d9 [GEM]1 d10, backbone not given here; G-quadruplex forming oligonucleotide) | 41 | 22 |
| APT-2063: GGTGGTGGTNGNGGTGGTGG (SEQ. ID. NO. 40); N=2′,2′-difluoro deoxycytidine, G=2-deoxy-guanosine, H=thymidine (aptamer; listed as DNA, chemistry not fully specified) | 22 | 8 |
| APT-2013: NNNGGNGGNGGNGGTTGTGGNGGNGGNGG (SEQ. ID. NO. 10); N=5-F-deoxyuridine, G=2-deoxy-guanosine, H=thymidine (DNA UUUGGUGGUGGUGGTTGTGGUGGUGGUGG; DNA, [5FU] at 1, 2, 3, 6, 9, 12, 21, 24, 27, backbone not given here) | 90 | 660 |
| APT-2060: GGTGGTGGNTGTGGTGGTGG (SEQ. ID. NO. 37); N=2′,2′-difluoro deoxycytidine, G=2-deoxy-guanosine, H=thymidine (aptamer; listed as DNA, chemistry not fully specified) | 40 | 23 |
| APT-2068: GGTGGTGGTGGTTGNGGTGGTGGTGG (SEQ. ID. NO. 31); N=2′,2′-difluoro deoxycytidine, G=2-deoxy-guanosine, H=thymidine (2',2'-difluoro deoxycytidine modified nucleosides, chemistry not fully specified) | – | 23 |
| APT-2066: GGTGGTGGTGGTNNTGGTGGTGGTGG (SEQ. ID. NO. 29); N=2′,2′-difluoro deoxycytidine, G=2-deoxy-guanosine, H=thymidine (DNA GGTGGTGGTGGTCCTGGTGGTGGTGG; sugars from the 5' end d12 [GEM]2 d12, backbone not given here; G-quadruplex forming oligonucleotide) | 34 | 10 |
| APT-2042: GGNGGNGGNGGTTGTGGNGGNGGNGG (SEQ. ID. NO. 32); N=5-F-deoxyuridine, G=2-deoxy-guanosine, H=thymidine (5-F-deoxyuridine modified nucleosides) | – | 500 |
| APT-2031: GGTGGTGGTNNTGGTGGTGG (SEQ. ID. NO. 23); N=5-F-deoxyuridine, G=2-deoxy-guanosine, H=thymidine (DNA GGTGGTGGTUUTGGTGGTGG; aptamer; DNA, [5FU] at 10, 11, backbone not given here) | > 10000 | 1500 |
| APT-2043: GGNGGNGGTGGTTGTGGTGGNGGNGG (SEQ. ID. NO. 33); N=5-F-deoxyuridine, G=2-deoxy-guanosine, H=thymidine (5-F-deoxyuridine modified nucleosides) | – | 600 |
| APT-2033: GGTGGTGGTTTNGGTGGTGG (SEQ. ID. NO. 25); N=5-F-deoxyuridine, G=2-deoxy-guanosine, H=thymidine (DNA GGTGGTGGTTTUGGTGGTGG; aptamer; DNA, [5FU] at 12, backbone not given here) | > 10000 | 3300 |
| APT-2071: GGTGGNGGTGGTTGTGGTGGNGGTGG (SEQ. ID. NO. 46); N=2′,2′-difluoro deoxycytidine, G=2-deoxy-guanosine, H=thymidine (2',2'-difluoro deoxycytidine modified nucleosides, chemistry not fully specified) | – | 15 |
| APT-2044: GGNGGTGGTGGTTGTGGTGGTGGNGG (SEQ. ID. NO. 34); N=5-F-deoxycytidine, G=2-deoxy-guanosine, H=thymidine (DNA GGCGGTGGTGGTTGTGGTGGTGGCGG; DNA, [5FC] at 3, 24, backbone not given here; G-quadruplex forming oligonucleotide) | – | > 1000 |
| APT-2064: GGNGGTGGTTGTGGTGGNGG (SEQ. ID. NO. 41); N=2′,2′-difluoro deoxycytidine, G=2-deoxy-guanosine, H=thymidine (DNA GGCGGTGGTTGTGGTGGCGG; sugars from the 5' end d2 [GEM]1 d14 [GEM]1 d2, backbone not given here; G-quadruplex forming oligonucleotide) | 16 | 8 |
| APT-2054: GGTGGTGGTGGTTNTGGTGGTGGTGG (SEQ. ID. NO. 30); N=2′,2′-difluoro deoxycytidine, G=2-deoxy-guanosine, H=thymidine (DNA GGTGGTGGTGGTTCTGGTGGTGGTGG; sugars from the 5' end d13 [GEM]1 d12, backbone not given here; G-quadruplex forming oligonucleotide) | < 300 | < 300 |
| APT-2040: GGTGGTGGTGGTTNTGGTGGTGGTGG (SEQ. ID. NO. 30); N=5-F-deoxyuridine, G=2-deoxy-guanosine, H=thymidine (DNA GGTGGTGGTGGTTUTGGTGGTGGTGG; DNA, [5FU] at 14, backbone not given here) | – | > 1000 |
| APT-2072: GGTGGTGGTTNTGGTGGTGGN (SEQ. ID. NO. 47); N=2′,2′-difluoro deoxycytidine, G=2-deoxy-guanosine, H=thymidine (2',2'-difluoro deoxycytidine modified nucleosides, chemistry not fully specified) | 12 | – |
| APT-2034: GGTGGTGGTNNNGGTGGTGG (SEQ. ID. NO. 26); N=5-F-deoxyuridine, G=2-deoxy-guanosine, H=thymidine (DNA GGTGGTGGTUUUGGTGGTGG; DNA, [5FU] at 10, 11, 12, backbone not given here) | > 10000 | 1200 |
| APT-2069: GGTGGTGGTGGTNGNGGTGGTGGTGG (SEQ. ID. NO. 44); N=2′,2′-difluoro deoxycytidine, G=2-deoxy-guanosine, H=thymidine (2',2'-difluoro deoxycytidine modified nucleosides, chemistry not fully specified) | – | 10 |
| APT-2023: GGNGGTGGNGG (SEQ. ID. NO. 21); N=5-F-deoxyuridine, G=2-deoxy-guanosine, H=thymidine (DNA GGUGGTGGUGG; DNA, [5FU] at 3, 9, backbone not given here) | 260 | 1860 |
| APT-2059: GGTGGTGGTNNTGGTGGTGG (SEQ. ID. NO. 23); N=2′,2′-difluoro deoxycytidine, G=2-deoxy-guanosine, H=thymidine (2',2'-difluoro deoxycytidine modified nucleosides, chemistry not fully specified) | 15 | 4 |
| APT-2067: GGTGGTGGTGGTNGTGGTGGTGGTGG (SEQ. ID. NO. 43); N=2′,2′-difluoro deoxycytidine, G=2-deoxy-guanosine, H=thymidine (DNA GGTGGTGGTGGTCGTGGTGGTGGTGG; sugars from the 5' end d12 [GEM]1 d13, backbone not given here; G-quadruplex forming oligonucleotide) | – | 24 |
| APT-2022: GGTGGNNNNGGTGG (SEQ. ID. NO. 20); N=5-F-deoxyuridine, G=2-deoxy-guanosine, H=thymidine (DNA GGTGGUUUUGGTGG; DNA, [5FU] at 6, 7, 8, 9, backbone not given here) | 110 | 790 |
